Data published in patent US20030187261A1, “Purine derivatives, process for their preparation and use thereof” (priority 2000, published 2003).

Tests used:
KG1 = assay: clonogenic output of KG1 in methylcellulose; type: cell-based, human; conditions: 25 μM, 14 days
Method: Cell lines: Human leukemic cell lines were obtained from the American Type Culture Collection (ATCC, Rockville, Md., USA). They were cultured in Iscove's Modified Dulbecco's Medium (IMDM) supplemented with 10% heat inactivated fetal calf serum (FCS), 200 U/ml penicillin, 200 μg/ml streptomycin and 1 μg/ml amphotericin B. Cells were cultured in a 5% CO2-95% air fully humidified incubator. For effects on clonogenic output, 1000 cells/well were plated in duplicate in methylcellulose (0.9%), supplemented with 20% FCS and cultured for 14 days.
Clonogenic output of KG1 was tested in methylcellulose with 25 μM of some of the novel compounds.

[1] = tested on: adult bone marrow CD34+CD38- cells; assay: pre-CFU assay; type: cell-based, human; conditions: 14 day liquid culture, total clonogenic output after secondary methylcellulose culture
Source text: […]. Cells with low-to-medium forward and low side scatter, highly positive green (CD34) fluorescence, and an orange (CD38) fluorescence signal lower than the mean fluorescence of cells labeled with an irrelevant isotype-matched control antibody+2 standard deviations were retained as CD34^+CD38^− cells and used in pre-CFU assays.
Pre-CFU assays were initiated by performing liquid cultures of CD34^+CD38^− cells in duplicate in 96-well flat-bottomed plates in IMDM/10% FCS, 1% bovine serum albumin (BSA), 100 U/ml IL-1, 200 U/ml IL-6, 30 U/ml IL-3 and 100 ng/ml stem cell factor (SCF). Pre-CFU cultures were initiated with 500 CD34^+CD38^− cells/well (200 μl). After 14 days of culture at 37° C. in 7.5% O2 and 5% CO2 in a fully humidified incubator, the number of cells in each well was counted. Subsequently, the cells were harvested, washed three times in IMDM/10% FCS, and plated in duplicate at 500 cells/well (1000 μl) in secondary methylcellulose CFU cultures as described for CFU assays.
Pre-CFU were cultured starting from adult bone marrow CD34^+CD38^− cells, that had been isolated using the FCM cell sorter. Novel compounds were added at different concentrations to the primary 14 day liquid culture. IC50 was calculated from dose-response curves from total clonogenic output after secondary methylcellulose culture (Table 5).

CDC2 = target: T1, CDC2 (Homo sapiens, UniProt P06493); assay: p34cdc2 (CDC2) kinase inhibition assay, histone H1 substrate; type: biochemical; conditions: Table 5, CDC2 activity in cell free system
T1 construct: made in house; host or cells: Sf9 insect cells, baculovirus co-infection
T1 sequence (P06493 whole entry, species assumed): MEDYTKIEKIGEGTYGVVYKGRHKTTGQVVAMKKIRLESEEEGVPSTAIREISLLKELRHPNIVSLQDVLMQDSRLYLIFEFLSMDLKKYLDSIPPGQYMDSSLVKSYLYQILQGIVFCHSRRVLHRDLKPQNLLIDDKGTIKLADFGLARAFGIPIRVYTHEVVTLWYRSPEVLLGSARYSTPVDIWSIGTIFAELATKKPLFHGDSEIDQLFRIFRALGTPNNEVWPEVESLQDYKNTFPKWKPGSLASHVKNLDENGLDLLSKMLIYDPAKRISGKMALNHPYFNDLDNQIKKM
T1 sequence (P14635 whole entry partner, species assumed): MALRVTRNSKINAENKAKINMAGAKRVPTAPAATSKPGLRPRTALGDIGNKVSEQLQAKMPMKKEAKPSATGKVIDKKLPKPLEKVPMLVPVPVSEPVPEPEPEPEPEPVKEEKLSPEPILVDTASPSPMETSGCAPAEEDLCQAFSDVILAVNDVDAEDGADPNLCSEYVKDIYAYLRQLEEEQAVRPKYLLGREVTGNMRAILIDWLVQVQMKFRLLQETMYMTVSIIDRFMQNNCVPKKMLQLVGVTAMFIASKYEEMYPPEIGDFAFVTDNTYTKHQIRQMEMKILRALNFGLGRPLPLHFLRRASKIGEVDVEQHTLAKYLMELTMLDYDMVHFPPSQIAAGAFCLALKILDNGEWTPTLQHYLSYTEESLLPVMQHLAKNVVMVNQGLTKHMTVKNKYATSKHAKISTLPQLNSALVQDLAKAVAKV
Method: Cyclin-dependent kinases (p34^cdc2, p33^cdk2, p33^cdk4 and cyclins (cyclin B, E and DI) are produced in Sf9 insect cells coinfected with appropriate baculoviral constructs. The cells are harvested 68-72 hrs post infection in lysis buffer for 30 min on ice and the soluble fraction is recovered by centrifugation at 14.000 g for 10 min. The protein extract is stored at −80° C.
To carry out experiments on kinetics under linear conditions, the final point test system for kinase activity measurement is used. The kinase is added to the reaction mixture in such a way that linear activity is obtained with respect to the concentration of enzyme and with respect to time.
Inhibition of p33^cdk4 kinase is determined with Rb-GST (0.2 mg/ml) as the substrate. Kinase activity is determined at 30° C. in kinase buffer.
Tested compounds are usually dissolved to 100 mM solutions in DMSO, the final concentration of DMSO in reaction mixture never exceeds 1%. The controls contain suitable dilutions of DMSO. After 10 min, the addition of 3×SDS sample buffer stops the incubations. […] The measurement of kinase activity is done using digital image analysis. The kinase activity is expressed as a percentage of maximum activity, the apparent inhibition constants are determined by graphic analysis. Kinase buffer: 50 mM Hepes pH 7.4, 10 mM MgCl21 5 mM EGTA, 10 mM 2-glycerolphosphate,

β-adrenergic receptors = assay: isoproterenol-induced intracellular cAMP synthesis in rat C6 glioma; type: cell-based; conditions: cAMP induced by 5 μM (−) isoproterenol
Method: Rat C6 glioma (ATCC N° CCL107) was cultivated in monolayer in serum-free chemically defined medium containing Ham's F10/minimal essential medium (1:1 vol/vol), 2 mM L-glutamine, 1% (vol/vol) minimal essential medium vitamins (100×), 1% (vol/vol) minimal essential medium nonessential amino acids (100×), 100 U/ml penicillin, 100 μg/ml streptomycin and 30 nM sodium selenite. Incubation was at 37° C. in a humidified atmosphere. Assays were performed in the logaritmic growth phase at a density of 2.5×10^5 cells/cm^2. Intracellular cAMP synthesis was induced by addition of 5 μM (−) isoproterenol. After 30 min incubation at 37° C. the medium was removed and the cellular amount of cAMP determined using the cAMP-enzyme immunoassay kit of Amersham. The IC50 is determined from a dose-response curve in duplicate. The effect of seven purine-analogs was measured after simultaneous addition with isoproterenol.
As P2Y1-like and A2 purinergic receptors, negatively and positively coupled to adenylate cyclase respectively, are present on rat C6 glioma the modulation of the synthesis of cAMP may be due to inhibition of the activation of β-adrenergic receptors by isoproterenol or to activation of purinergic receptors.

[2] = tested on: PHA-stimulated lymphocytes (PBMC); assay: cell number of PHA-stimulated lymphocytes (PBMC), flow cytometry; type: cell-based, human; conditions: 96 hours, in the presence of IL-2

Row | Compound | Colony output vs. control cultures without novel compound (KG1) [%] | IC50 [1] [µM] | IC50 (CDC2) [µM] | Effect: fold activation (β-adrenergic receptors; 50 μM) | IC50 [2] [µM] | IC50 ([1]; Homo sapiens, 336 h) [µM] | Effect (β-adrenergic receptors; 30 min, rat C6 glioma) | IC50 (β-adrenergic receptors; 30 min, read-out: I50) [µM] | CC50 ([2]; Homo sapiens, Lymphocyte, read-out: Lymphocytes IC50) [µM]
1 | 2-(3-aminoethylamino)-6-(3,3-dihydroxybenzyl)amino-9-isopropylpurine [P28] | 0 | 3.5 | 1.5 | 1.3-fold activation | 9 ± 2.2 |  |  |  | 
2 | CCCCCCNc1nc(NC(CO)c2ccccc2)c2ncn(C(C)C)c2n1 (centres unmarked) [P23, 2-(hexylamino)-6-(1-phenyl-2-hydroxyethylamino)-9-isopropylpurine] | 19 |  | 60 |  |  | > 25 | inhibition | 15 ± 2 | 15 ± 2
